Source: ChEMBL document CHEMBL1770137, “High concentration electrophysiology-based fragment screen: discovery of novel acid-sensing ion channel 3 (ASIC3) inhibitors” (Bioorg Med Chem Lett, 2011)

What was measured:
[1] = target: T1, Acid-sensing ion channel 3 (Homo sapiens, UniProt Q9UHC3); test: Inhibition of human ASIC3 expressed in HEK293 cells assessed as inhibition of acid-evoked current by manual patch-clamp electrophysiology assay; format: cell-based
T1 sequence (Q9UHC3 whole entry): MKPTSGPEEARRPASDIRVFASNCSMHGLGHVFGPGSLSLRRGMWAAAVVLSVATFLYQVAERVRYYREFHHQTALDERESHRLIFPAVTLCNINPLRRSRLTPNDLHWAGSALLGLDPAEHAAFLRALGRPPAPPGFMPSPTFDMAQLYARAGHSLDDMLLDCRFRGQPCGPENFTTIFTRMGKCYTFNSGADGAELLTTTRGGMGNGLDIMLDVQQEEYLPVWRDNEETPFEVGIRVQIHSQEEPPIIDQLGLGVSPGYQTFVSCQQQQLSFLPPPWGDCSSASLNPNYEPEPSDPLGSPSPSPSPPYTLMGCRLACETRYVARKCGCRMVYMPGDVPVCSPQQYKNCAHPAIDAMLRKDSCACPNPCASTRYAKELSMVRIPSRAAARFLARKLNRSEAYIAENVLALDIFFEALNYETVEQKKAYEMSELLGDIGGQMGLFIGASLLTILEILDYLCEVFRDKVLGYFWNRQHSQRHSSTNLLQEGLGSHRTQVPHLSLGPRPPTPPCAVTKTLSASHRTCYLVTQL

[2] = Plasma protein binding in rat; format: ADME, cell-free; details: read-out: PPB (converted)
[3] = target: Voltage-dependent L-type calcium channel subunit alpha-1C (Homo sapiens, UniProt Q13936); test: Inhibition of Cav1.2
Sequence of Voltage-dependent L-type calcium channel subunit alpha-1C (Q13936 whole entry): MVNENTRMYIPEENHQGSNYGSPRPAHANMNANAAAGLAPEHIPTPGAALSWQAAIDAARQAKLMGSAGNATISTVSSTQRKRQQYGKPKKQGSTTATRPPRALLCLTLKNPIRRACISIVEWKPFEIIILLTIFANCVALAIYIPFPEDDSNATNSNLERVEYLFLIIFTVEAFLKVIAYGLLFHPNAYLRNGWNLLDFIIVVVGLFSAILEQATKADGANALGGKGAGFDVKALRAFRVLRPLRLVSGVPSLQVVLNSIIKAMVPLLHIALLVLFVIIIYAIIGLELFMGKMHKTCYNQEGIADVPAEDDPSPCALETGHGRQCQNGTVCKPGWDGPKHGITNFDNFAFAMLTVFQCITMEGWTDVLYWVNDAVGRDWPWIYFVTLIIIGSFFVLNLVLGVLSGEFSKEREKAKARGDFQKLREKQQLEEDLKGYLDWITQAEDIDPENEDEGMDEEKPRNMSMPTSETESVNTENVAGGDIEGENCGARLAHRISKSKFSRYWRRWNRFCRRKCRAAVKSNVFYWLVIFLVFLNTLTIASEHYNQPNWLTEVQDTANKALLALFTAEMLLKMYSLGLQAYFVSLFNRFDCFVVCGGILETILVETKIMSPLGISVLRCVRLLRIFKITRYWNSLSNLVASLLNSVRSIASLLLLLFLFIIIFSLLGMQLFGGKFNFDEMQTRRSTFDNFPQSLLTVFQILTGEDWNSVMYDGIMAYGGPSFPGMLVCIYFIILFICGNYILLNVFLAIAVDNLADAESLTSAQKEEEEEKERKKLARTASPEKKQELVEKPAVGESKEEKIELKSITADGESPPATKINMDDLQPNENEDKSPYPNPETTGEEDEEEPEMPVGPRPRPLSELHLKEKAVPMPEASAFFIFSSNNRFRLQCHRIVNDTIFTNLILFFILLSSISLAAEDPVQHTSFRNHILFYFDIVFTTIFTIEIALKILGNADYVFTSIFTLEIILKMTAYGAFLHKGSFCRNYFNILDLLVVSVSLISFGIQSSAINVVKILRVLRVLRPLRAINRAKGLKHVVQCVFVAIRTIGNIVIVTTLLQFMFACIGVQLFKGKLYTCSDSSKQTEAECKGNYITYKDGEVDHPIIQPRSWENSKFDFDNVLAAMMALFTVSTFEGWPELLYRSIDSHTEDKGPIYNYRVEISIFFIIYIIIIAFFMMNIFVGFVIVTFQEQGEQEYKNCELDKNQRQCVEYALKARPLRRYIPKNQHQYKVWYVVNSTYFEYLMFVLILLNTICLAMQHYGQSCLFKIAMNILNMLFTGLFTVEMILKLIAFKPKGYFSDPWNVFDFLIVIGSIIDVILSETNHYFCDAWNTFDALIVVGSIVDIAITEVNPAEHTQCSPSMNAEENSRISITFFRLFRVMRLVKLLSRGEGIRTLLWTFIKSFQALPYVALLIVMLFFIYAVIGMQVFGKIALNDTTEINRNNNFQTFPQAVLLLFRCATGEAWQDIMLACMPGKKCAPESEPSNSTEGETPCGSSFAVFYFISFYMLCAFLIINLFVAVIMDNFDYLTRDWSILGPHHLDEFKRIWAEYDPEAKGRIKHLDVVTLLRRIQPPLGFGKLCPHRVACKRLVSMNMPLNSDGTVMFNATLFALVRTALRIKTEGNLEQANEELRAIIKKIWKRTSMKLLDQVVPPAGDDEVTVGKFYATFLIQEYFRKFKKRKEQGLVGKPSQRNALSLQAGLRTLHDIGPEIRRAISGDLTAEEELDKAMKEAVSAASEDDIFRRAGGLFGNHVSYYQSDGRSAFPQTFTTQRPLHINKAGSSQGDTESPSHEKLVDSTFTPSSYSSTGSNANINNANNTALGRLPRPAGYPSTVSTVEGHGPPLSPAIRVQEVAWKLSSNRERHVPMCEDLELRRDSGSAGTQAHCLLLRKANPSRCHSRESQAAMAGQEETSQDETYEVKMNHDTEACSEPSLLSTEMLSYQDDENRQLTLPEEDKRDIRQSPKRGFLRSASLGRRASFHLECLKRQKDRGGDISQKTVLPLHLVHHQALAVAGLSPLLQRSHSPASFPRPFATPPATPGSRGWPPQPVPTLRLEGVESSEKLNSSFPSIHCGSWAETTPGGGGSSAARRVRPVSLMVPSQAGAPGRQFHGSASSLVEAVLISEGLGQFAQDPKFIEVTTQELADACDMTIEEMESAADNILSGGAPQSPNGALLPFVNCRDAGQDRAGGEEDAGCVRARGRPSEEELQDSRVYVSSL

[4] = Lipophilicity, log D of the compound by HPLC; format: physicochemical
CYP3A4 = CYP3A4 (Homo sapiens, UniProt P08684); test: Inhibition of CYP3A4 at 10 uM; format: ADME
Sequence of CYP3A4 (P08684 whole entry): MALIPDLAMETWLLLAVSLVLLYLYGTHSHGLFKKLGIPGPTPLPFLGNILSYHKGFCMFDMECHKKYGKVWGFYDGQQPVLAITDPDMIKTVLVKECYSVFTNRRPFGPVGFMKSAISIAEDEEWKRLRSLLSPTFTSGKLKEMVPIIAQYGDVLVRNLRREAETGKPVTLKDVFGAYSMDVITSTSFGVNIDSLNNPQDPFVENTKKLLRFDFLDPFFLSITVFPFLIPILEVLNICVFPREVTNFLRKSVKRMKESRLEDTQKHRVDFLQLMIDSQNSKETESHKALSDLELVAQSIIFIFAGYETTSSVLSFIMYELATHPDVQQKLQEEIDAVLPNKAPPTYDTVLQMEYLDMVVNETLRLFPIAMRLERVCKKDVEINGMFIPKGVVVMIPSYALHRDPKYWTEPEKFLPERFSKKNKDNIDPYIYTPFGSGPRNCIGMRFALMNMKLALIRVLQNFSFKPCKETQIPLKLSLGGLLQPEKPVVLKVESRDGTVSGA

CYP2D6 = CYP2D6 (Homo sapiens, UniProt P10635); test: Inhibition of CYP2D6 at 10 uM; format: ADME
Sequence of CYP2D6 (P10635 whole entry): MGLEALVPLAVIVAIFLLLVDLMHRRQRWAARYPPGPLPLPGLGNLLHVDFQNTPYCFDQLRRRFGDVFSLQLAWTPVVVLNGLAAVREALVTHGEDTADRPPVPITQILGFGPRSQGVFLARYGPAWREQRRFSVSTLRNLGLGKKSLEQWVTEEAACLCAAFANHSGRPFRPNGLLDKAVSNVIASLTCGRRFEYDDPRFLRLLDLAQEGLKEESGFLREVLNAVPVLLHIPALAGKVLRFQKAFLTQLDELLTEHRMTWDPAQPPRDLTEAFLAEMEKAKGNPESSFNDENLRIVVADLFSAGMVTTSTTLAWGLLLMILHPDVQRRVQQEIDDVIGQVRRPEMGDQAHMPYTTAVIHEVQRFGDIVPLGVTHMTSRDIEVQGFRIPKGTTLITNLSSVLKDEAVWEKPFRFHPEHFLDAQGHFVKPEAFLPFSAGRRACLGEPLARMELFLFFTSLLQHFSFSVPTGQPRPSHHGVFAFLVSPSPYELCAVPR

CYP2C9 = CYP2C9 (Homo sapiens, UniProt P11712); test: Inhibition of CYP2C9 at 10 uM; format: ADME
Sequence of CYP2C9 (P11712 whole entry): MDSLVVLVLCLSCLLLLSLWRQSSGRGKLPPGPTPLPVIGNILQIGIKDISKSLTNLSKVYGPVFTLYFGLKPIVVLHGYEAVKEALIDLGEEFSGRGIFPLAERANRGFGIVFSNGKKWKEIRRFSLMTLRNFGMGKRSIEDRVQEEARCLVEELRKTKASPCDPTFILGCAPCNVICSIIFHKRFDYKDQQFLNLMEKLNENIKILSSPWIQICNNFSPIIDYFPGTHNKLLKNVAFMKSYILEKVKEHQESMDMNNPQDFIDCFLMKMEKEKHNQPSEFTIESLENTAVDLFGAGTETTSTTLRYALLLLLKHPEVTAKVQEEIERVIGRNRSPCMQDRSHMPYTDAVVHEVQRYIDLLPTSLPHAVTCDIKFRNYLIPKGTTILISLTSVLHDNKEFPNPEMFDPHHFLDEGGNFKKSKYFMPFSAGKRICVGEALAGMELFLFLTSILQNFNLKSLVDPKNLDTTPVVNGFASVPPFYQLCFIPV

[5] = Plasma protein binding in human; format: ADME, cell-free; details: read-out: PPB (converted)
[6] = target: T2, Acid-sensing ion channel 3 (Homo sapiens) (UniProt Q9UHC3); test: Inhibition of human ASIC3 expressed in HEK293 cells assessed as inhibition of acid-evoked current at 500 uM by manual patch-clamp electrophysiology assay; format: cell-based
T2 sequence (whole entry): T1 sequence (Q9UHC3 whole entry)

[7] = target: T2, Acid-sensing ion channel 3 (Homo sapiens); test: Inhibition of human ASIC3 expressed in HEK293 cells assessed as inhibition of acid-evoked current at 10 uM by manual patch-clamp electrophysiology assay; format: cell-based
[8] = target: T2, Acid-sensing ion channel 3 (Homo sapiens); test: Inhibition of human ASIC3 expressed in HEK293 cells assessed as inhibition of acid-evoked current at 1000 uM by manual patch-clamp electrophysiology assay; format: cell-based
[9] = target: Voltage-gated inwardly rectifying potassium channel KCNH2 (Homo sapiens, UniProt Q12809); test: Binding affinity to human ERG
Sequence of Voltage-gated inwardly rectifying potassium channel KCNH2 (Q12809 whole entry): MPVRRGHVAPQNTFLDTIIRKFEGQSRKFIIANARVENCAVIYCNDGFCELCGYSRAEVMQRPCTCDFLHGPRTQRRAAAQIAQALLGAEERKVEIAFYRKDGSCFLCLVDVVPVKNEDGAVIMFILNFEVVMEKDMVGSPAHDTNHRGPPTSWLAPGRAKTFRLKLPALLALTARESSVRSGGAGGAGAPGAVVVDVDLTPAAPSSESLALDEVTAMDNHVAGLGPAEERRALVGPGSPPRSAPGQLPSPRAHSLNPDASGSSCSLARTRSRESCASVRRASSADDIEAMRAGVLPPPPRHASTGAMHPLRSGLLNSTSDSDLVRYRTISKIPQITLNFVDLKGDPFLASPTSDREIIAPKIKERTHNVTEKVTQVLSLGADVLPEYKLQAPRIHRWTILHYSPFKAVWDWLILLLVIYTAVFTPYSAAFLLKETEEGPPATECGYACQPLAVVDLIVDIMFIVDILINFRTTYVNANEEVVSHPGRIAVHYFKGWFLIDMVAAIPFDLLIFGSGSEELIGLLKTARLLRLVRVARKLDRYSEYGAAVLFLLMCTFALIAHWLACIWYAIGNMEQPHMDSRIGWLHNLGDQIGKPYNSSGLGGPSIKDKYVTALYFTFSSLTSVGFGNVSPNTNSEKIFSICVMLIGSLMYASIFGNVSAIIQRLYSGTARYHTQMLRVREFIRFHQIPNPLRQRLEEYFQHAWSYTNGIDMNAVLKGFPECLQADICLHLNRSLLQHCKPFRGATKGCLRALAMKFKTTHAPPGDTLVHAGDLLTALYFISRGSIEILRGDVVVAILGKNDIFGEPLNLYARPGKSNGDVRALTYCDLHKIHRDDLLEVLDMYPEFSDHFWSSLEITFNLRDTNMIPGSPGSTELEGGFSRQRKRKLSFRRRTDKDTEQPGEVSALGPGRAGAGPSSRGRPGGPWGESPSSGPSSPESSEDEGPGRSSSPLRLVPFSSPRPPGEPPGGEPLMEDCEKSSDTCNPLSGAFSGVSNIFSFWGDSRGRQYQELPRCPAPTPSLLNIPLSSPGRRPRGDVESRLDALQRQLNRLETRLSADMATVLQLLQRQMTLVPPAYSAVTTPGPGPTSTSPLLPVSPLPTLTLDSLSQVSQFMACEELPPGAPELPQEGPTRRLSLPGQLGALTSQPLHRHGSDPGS

[10] = Volume of distribution in rat; format: ADME, organism-based; details: in vivo
[11] = Half life in rat; format: ADME, organism-based; details: in vivo
[12] = Clearance in rat; format: ADME, organism-based; details: in vivo

Row | SMILES | IC50 [1] [µM] | also measured
1 | Clc1cc(Cl)cc(-c2ccc3c(c2)CCNC3)c1 | 3.3 | 
2 | Brc1ccc2c(c1)CCNC2 | 701 | 
3 | CN1CCN(c2ccc(-c3ccc4c(c3)CCNC4)cc2C(F)(F)F)CC1 | 3.1 | fraction unbound [2]: 0.011; IC50 [3]: > 30 µM; logD [4]: 2.13; inhibition at 10 µM (CYP3A4): < 35%; inhibition at 10 µM (CYP2D6): < 35%; inhibition at 10 µM (CYP2C9): < 35%; fraction unbound [5]: 0.11
4 | FC(F)(F)c1cccc(-c2ccc3c(c2)CCNC3)c1 | 7.1 | 
5 | Brc1ccc2c(c1)CCN2 |  | inhibition [6]: 12%
6 | Cc1cc(N2CCc3cc(Br)ccc3C2)c2ccccc2n1 | 27.6 | 
7 | Nc1cc(Cc2ccccn2)nc(-c2ccccc2)c1 | 5.8 | 
8 | c1cc2c(cc1-c1cnc3c(c1)CCN3)CCNC2 | 19.4 | 
9 | Cc1cccc(Nc2ccc(C#CC(C)(C)O)cc2)n1 | 17 | 
10 | CCCc1cc(NC)c2cc(C(=O)NCCc3ccc(Cl)cc3)ccc2n1 |  | inhibition [7]: 3%
11 | Nc1ccnc(-c2ccccc2)c1 | 6.9 | 
12 | c1ccc(-c2c[nH]cn2)cc1 |  | inhibition [8]: 66%
13 | Cc1cccc(Nc2ccc(-c3ccc(N4CCNCC4)nc3)cc2)n1 | 3.8 | Ki [9]: 0.7 µM; fraction unbound [2]: 0.007; Vd [10]: 3.5 L/kg; half-life [11]: 4.8 h; IC50 [3]: 20 µM; clearance [12]: 11 mL/min/kg; logD [4]: 1.99; inhibition at 10 µM (CYP3A4): < 45%; inhibition at 10 µM (CYP2D6): < 45%; inhibition at 10 µM (CYP2C9): < 45%; fraction unbound [5]: 0.098

Now from value to molecule, other results behind:

Row | IC50 [1] [µM] | SMILES | also measured
14 | 190 | COc1cccnc1Nc1cccc(C)n1 | 
15 | 130 | Nc1cc(-c2ccccc2)ncn1 | 
16 | 1.2 | Nc1ccnc(-c2cccc(C#Cc3ccccc3)c2)c1 | 
17 | 9.6 | CCCc1cc(N)c2cc(C(=O)NCCc3ccc(Cl)cc3)ccc2n1 | 
18 | 1.7 | CC1CCCCN1c1cccc(-c2ccc3c(c2)CCNC3)n1 (stereo unspecified) | 
19 | 2.6 | Nc1ccnc(-c2cccc(C#CCCO)c2)c1 | 
20 | 763 | Nc1cccc(-c2ccccc2)n1 | 
21 | 9 | Cc1cccc(Nc2nccc3ccoc23)n1 | 
22 | 103 | COc1ccc2[nH]cc(CN3CCc4cc(-c5cccc(C(F)(F)F)c5)ccc4C3)c2c1 | 
23 | 14.4 | CN1CCN(c2ccc(-c3ccc4c(c3)CCNC4)cc2)CC1 | 
24 | 10.9 | COc1ccc2[nH]cc(CN3CCc4cc(Br)ccc4C3)c2c1 | 
25 | 363 | NCc1nc2ccccc2s1 | 
26 | 160 | NCc1ccc(-c2c[nH]cn2)cc1 | 
27 | 97 | NCc1cc2ccccc2s1 | 
28 | 430 | Nc1ccc(-c2c[nH]cn2)cc1 | 
